Source: US12428396B2, “Fused pyridine ring derivative, preparation method therefor, and pharmaceutical use thereof” (priority 2019, dated 2025)

What was measured:
[1] = Monkey pharmacokinetic study (iv, plasma LC/MS/MS); type: in vivo, cynomolgus monkeys; details: cynomolgus monkey, intravenous injection, 1 mg/kg
Procedure: Taking cynomolgus monkeys as test animals and the drug concentrations in monkey plasma at various times after intravenous injection (iv) of the compounds of Example 1-1 and Positive Control Example 1 were measured by using LC/MS/MS method. The pharmacokinetic performance in cynomolgus monkeys of the compounds of the present disclosure was studied and the pharmacokinetic profile thereof was evaluated.
6 non-naïve cynomolgus monkeys (999M-004, medicilon) with 2-5 kg, every 3 of which were in one group.
A certain amount of the compounds was weighed, 5% volume of DMSO, 30% PG, 30% PEG400 and 35% volume of normal saline were added, and the reaction mixture was subjected to vortex ultrasonic stirring for uniform mixing to give a clean administration solution at a concentration of 0.5 mg/mL.
Monkeys were intravenously injected with the compounds after fasting overnight, at a dose of 1.0 mg/kg and a volume of 2 mL/kg.
The compound of Example 1-1/Positive Control Example 1 was intravenously injected to monkeys, and 1 mL of blood was collected through femoral vein before administration and at 5 min, 0.25 h, 0.5 h, 1.0 h, 2.0 h, 4.0 h, 8.0 h, 12.0 h, 24 h, 32 h, 48 h, 56 h and 72 h after administration, respectively, and placed in EDTA-K2 anticoagulant blood collection tubes, plasma was centrifuged (centrifugal force: 2200 g, centrifugal time: 10 min, 2-8° C.), and stored at −80° C., and food intake was resumed 3 h after administration.

[2] = Thermodynamic stability test of atropisomerism (LC-MS); type: physicochemical
Procedure: Agilent 1200 DAD model LC-MS; column: waters sunfire C18, 4.6×75 mm, 3.5 μm; mobile phase: water (0.1% trifluoroacetic acid):acetonitrile (0.1% trifluoroacetic acid).
The compounds of Examples 1-1a, 1-1b were atropisomers of each other and had different retention times in the LC-MS spectra, and the tautomerism of the atropisomers could be detected by LC-MS.
Compound 1-1a (1.5 mg) was dissolved in acetonitrile (1.0 mL), and the reaction solution was heated at 40° C. for 1.0 h, and the change in purity of compound 1-1a was detected by LC-MS. Compound 1-1a (1.5 mg) was dissolved in dimethyl sulfoxide (1.0 mL), and the reaction solution was heated at 120° C. for 3.0 h, and the change in purity of compound 1-1a was detected by LC-MS.
The same procedure was used to test the change in purity of compound 1-1b at 40° C. and 120° C.
The compounds of Examples 5-1, 5-2 were atropisomers of each other and had different retention times in the LC-MS spectra, and the tautomerism of the atropisomers could be detected by LC-MS.
Compound 5-1 (1.0 mg) was dissolved in DMSO (1.0 mL), and the reaction solution was heated at 37° C. and 120° C. for 3.0 h, respectively, and the change in purity of compound 5-1 was detected by LC-MS.

CC(C)(C#Cc1nc([C@H](Cc2cc(F)cc(F)c2)NC(=O)Cn2nc(C(F)(F)F)c3c2C(F)(F)[C@@H]2C[C@H]32)c(-c2ccc(Cl)c3c(NS(C)(=O)=O)nn(CC(F)(F)F)c23)c2c1CCC2)S(C)(=O)=O (atropisomer, axis not shown; (aR)) [Example 1-1, N—((S)-1-((R)-4-(4-chloro-3-(methanesulfonamide)-1-(2,2,2-trifluoroethyl)-1H-indazol-7-yl)-1-(3-methyl-3-(methylsulfonyl)but-1-yn-1-yl)-6,7-dihydro-5H-cyclopenta[c]pyridin-3-yl)-2-(3,5-difluorophenyl)ethyl)-2-((3bS,4aR)-5,5-difluoro-3-(trifluoromethyl)-3b,4,4a,5-tetrahydro-1H-cyclopropa[3,4]cyclopenta[1,2-c]pyrazol-1-yl)acetamide]
Clearance CLz/F [1]: 2.0 mL/min/kg
AUC(0-t) ([1]; plasma, read-out: Area under curve AUC0-72): 8520 ng·h/mL
atropisomer stability (change in purity by LC-MS) ([2]; heated at 40° C. for 1.0 h in acetonitrile): stable single-configuration compounds
atropisomer stability (change in purity by LC-MS) ([2]; heated at 120° C. for 3.0 h in dimethyl sulfoxide): stable single-configuration compounds
